Assay results published in patent publication US20250197864A1, “LNCRNA TRANSCRIPTS IN MELANOMAGENESIS” (The Regents of the University of California, priority 2021, published 2025).

Tested on: gene expression in D04 melanoma cells
Assay: RNA-Seq differential expression analysis (DESeq2)
Type: cell-based, human
Conditions: up-regulated list
Experimental: Total RNA was isolated using the RNeasy mini Kit (QIAGEN) following the manufacturer's protocol. Quality check for extracted RNA was done using 2100 Bioanalyzer (Agilent Technologies, USA) or Tapestation System (Agilent Technologies, USA). […] For samples used for identification of MAPK-responsive lncRNAs, paired-end, 101-bp sequencing was performed by Centrillion Genomic Services (Centrillion Biosciences, USA) on an Illumina HiSeq 2000. For DE gene analysis of ASO-transfected D04 samples, paired-end, 2×150-bp sequencing was performed by Genewiz (USA) on a Illumina HiSeq.
Sequence reads were aligned to the human genome (hg19) using TopHat (Version 2.0.11).
Differential expression (DE) analysis was done using DESeq2. Differentially expressed genes were defined by more than 1.5-fold changes (log 2 >0.58 or <−0.58) in expression with FDR<0.05. GO term analysis was done using DAVID Functional Annotation Clustering analysis.
To examine the biomolecular changes upon TRASH-inhibition in melanoma, D04 cells were treated with TRASH-ASOs (SEQ ID NO:15) and Control-ASOs and RNA was extracted and used for RNA-Seq. […] These GO terms consisted of genes encoding growth factors, tyrosine kinases, G protein coupled receptor subunits, and collagen subunits. Scatter plot diagram showing differential gene expression after TRASH-ASO treatment compared to Control-ASO treatment. (cut-off for significance was adjusted p-value <0.05). Data was obtained from RNA-Seq of D04 melanoma cells, treatment period was three days. (FIG. 5c)

GACTGGAGATAATTAA (gapmer, pattern not given here) [SEQ ID NO: 15, GapmeR ASO targeting AC004540.4 (TRASH), exon region of both isoforms; used for in vitro experiments]
log2FoldChange CSRNP1 (ENSG00000144655): 0.6637 | log2FoldChange MYH15 (ENSG00000144821): 1.163 | log2FoldChange PHLDB2 (ENSG00000144824): 0.8277 | log2FoldChange EAF2 (ENSG00000145088): 0.8471 | log2FoldChange ECE2 (ENSG00000145194): 0.8019 | log2FoldChange DDIT4L (ENSG00000145358): 0.9547 | log2FoldChange GFOD1 (ENSG00000145990): 0.6187 | log2FoldChange TRIM7 (ENSG00000146054): 0.7787 | log2FoldChange PM20D2 (ENSG00000146281): 0.6289 | log2FoldChange EGFR (ENSG00000146648): 0.8305 | log2FoldChange GCNA (ENSG00000147174): 0.8797 | log2FoldChange MAL2 (ENSG00000147676): 0.6498 | log2FoldChange RGS10 (ENSG00000148908): 0.5971 | log2FoldChange ST14 (ENSG00000149418): 1.17 | log2FoldChange PDCD4 (ENSG00000150593): 0.586 | log2FoldChange IL18 (ENSG00000150782): 0.6212 | log2FoldChange NOCT (ENSG00000151014): 0.6791 | log2FoldChange JMY (ENSG00000152409): 0.9323 | log2FoldChange NR4A2 (ENSG00000153234): 0.7664 | log2FoldChange CCDC148 (ENSG00000153237): 0.745 | log2FoldChange FAM167A (ENSG00000154319): 0.6771 | log2FoldChange LY96 (ENSG00000154589): 0.6345 | log2FoldChange HKDC1 (ENSG00000156510): 0.717 | log2FoldChange CD109 (ENSG00000156535): 0.6418 | log2FoldChange NRG1 (ENSG00000157168): 0.8358 | log2FoldChange WDR66 (ENSG00000158023): 1.174 | log2FoldChange TPRG1L (ENSG00000158109): 0.6032 | log2FoldChange XDH (ENSG00000158125): 0.6451 | log2FoldChange GDPD5 (ENSG00000158555): 0.6005 | log2FoldChange LAD1 (ENSG00000159166): 1.038 | log2FoldChange STC1 (ENSG00000159167): 0.8653 | log2FoldChange KLHL21 (ENSG00000162413): 0.8059 | log2FoldChange FBLIM1 (ENSG00000162458): 0.7967 | log2FoldChange ATF3 (ENSG00000162772): 0.6827 | log2FoldChange COQ8A (ENSG00000163050): 0.9489 | log2FoldChange CRYGC (ENSG00000163254): 1.014 | log2FoldChange PAQR3 (ENSG00000163291): 0.7134 | log2FoldChange KBTBD8 (ENSG00000163376): 1.017 | log2FoldChange IGFN1 (ENSG00000163395): 1.134 | log2FoldChange NKX6-1 (ENSG00000163623): 1.147 | log2FoldChange PLB1 (ENSG00000163803): 0.8869 | log2FoldChange LZTFL1 (ENSG00000163818): 0.6384 | log2FoldChange RAET1E (ENSG00000164520): 1.147 | log2FoldChange DAGLB (ENSG00000164535): 0.608 | log2FoldChange GPR85 (ENSG00000164604): 0.7923 | log2FoldChange SUN3 (ENSG00000164744): 0.9518 | log2FoldChange EN2 (ENSG00000164778): 1.028 | log2FoldChange FRAT1 (ENSG00000165879): 0.9146 | log2FoldChange GPR176 (ENSG00000166073): 0.7841 | log2FoldChange SVOP (ENSG00000166111): 1.178 | log2FoldChange C16orf71 (ENSG00000166246): 0.7026 | log2FoldChange C16orf46 (ENSG00000166455): 0.9764 | log2FoldChange GREM1 (ENSG00000166923): 1.047 | log2FoldChange CD3D (ENSG00000167286): 0.767 | log2FoldChange AXL (ENSG00000167601): 0.7701 | log2FoldChange DNAAF3 (ENSG00000167646): 0.6547 | log2FoldChange SERPINF2 (ENSG00000167711): 1.036 | log2FoldChange KRT80 (ENSG00000167767): 0.6697 | log2FoldChange ABCA3 (ENSG00000167972): 0.8489 | log2FoldChange CAVIN2 (ENSG00000168497): 1.053 | log2FoldChange IL12A (ENSG00000168811): 0.635 | log2FoldChange C8orf46 (ENSG00000169085): 0.7557 | log2FoldChange HSPB3 (ENSG00000169271): 0.6385 | log2FoldChange ZNF280A (ENSG00000169548): 0.9372 | log2FoldChange MT1E (ENSG00000169715): 0.8998 | log2FoldChange MZB1 (ENSG00000170476): 1.158 | log2FoldChange S1PR1 (ENSG00000170989): 0.6805 | log2FoldChange XAGE3 (ENSG00000171402): 0.6996 | log2FoldChange ZNF57 (ENSG00000171970): 0.6499 | log2FoldChange NIPAL4 (ENSG00000172548): 1.166 | log2FoldChange MUC13 (ENSG00000173702): 1.042 | log2FoldChange GOLT1A (ENSG00000174567): 0.9754 | log2FoldChange C11orf68 (ENSG00000175573): 0.673 | log2FoldChange TSPEAR (ENSG00000175894): 0.9662 | log2FoldChange ENTHD1 (ENSG00000176177): 0.5983 | log2FoldChange ZNF843 (ENSG00000176723): 0.9407 | log2FoldChange RIMKLA (ENSG00000177181): 0.711 | log2FoldChange JUN (ENSG00000177606): 0.715 | log2FoldChange ZNF619 (ENSG00000177873): 0.5884 | log2FoldChange ZNF114 (ENSG00000178150): 0.8507 | log2FoldChange KCTD12 (ENSG00000178695): 0.7298 | log2FoldChange FJX1 (ENSG00000179431): 0.6535 | log2FoldChange PLD6 (ENSG00000179598): 0.696 | log2FoldChange WDR97 (ENSG00000179698): 0.7195 | log2FoldChange B3GNT3 (ENSG00000179913): 0.7904 | log2FoldChange ANKRD18A (ENSG00000180071): 0.7649 | log2FoldChange OXTR (ENSG00000180914): 1.093
